Measured values: BindingDB's records for doi:10.1021/jm050792d (University of Naples Federico II, 2005)

Assays:
[1] = biological target: Adenosine receptor A2a (Homo sapiens, UniProt P29274); test: Displacement of [3H]NECA from human adenosine A2A receptor expressed in CHO cells
[2] = biological target: T1, Adenosine receptor A1 (Homo sapiens, UniProt P30542); test: Displacement of [3H]DPCPX from human adenosine A1 receptor expressed in CHO cells
T1 sequence (P30542 whole entry): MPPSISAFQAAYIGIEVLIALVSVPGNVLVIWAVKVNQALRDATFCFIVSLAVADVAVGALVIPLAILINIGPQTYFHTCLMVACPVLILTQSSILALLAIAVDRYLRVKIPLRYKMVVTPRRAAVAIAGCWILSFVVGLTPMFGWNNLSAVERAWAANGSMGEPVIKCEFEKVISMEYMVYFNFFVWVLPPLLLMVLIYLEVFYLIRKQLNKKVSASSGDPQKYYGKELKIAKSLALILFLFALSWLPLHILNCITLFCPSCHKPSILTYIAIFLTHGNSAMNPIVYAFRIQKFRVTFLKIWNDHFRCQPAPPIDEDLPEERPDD

Chain of Adenosine receptor A2a (P29274 whole entry): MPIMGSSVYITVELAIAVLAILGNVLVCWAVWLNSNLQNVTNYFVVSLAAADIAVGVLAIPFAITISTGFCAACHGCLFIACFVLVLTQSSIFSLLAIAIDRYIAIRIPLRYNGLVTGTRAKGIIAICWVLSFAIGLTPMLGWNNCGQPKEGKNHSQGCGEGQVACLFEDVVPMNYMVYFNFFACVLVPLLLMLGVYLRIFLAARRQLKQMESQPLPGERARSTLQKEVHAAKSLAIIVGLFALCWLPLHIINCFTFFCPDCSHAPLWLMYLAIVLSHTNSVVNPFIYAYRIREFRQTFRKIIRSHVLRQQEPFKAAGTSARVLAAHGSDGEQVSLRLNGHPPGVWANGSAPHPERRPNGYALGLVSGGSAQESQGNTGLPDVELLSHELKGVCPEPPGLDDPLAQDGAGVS

Ki [1] [µM] | Ki [2] [µM] | Structure (SMILES)
> 10 | > 10 | CC1CSc2nc3nn[nH]c3c(=O)n21 (centres undefined) [7-methyl-6,7-dihydro[1,3]thiazolo[3,2-a][1,2,3]triazolo[4,5-d]pyrimidin-9(3H)-one]
> 10 | > 10 | O=c1c2[nH]nnc2nc2n1CCCS2 [7,8-Dihydro-3H,6H-5-thia-1,2,3,4,8a-pentaaza-cyclopenta[b]naphthalen-9-one]
